One compound from publication PMC2764797 (Neurochemistry international, 2009) can be followed below.

The assay addresses GAT1 (Homo sapiens, UniProt P30531). It is filed as cell-based.

Sequence of GAT1 (P30531 whole entry): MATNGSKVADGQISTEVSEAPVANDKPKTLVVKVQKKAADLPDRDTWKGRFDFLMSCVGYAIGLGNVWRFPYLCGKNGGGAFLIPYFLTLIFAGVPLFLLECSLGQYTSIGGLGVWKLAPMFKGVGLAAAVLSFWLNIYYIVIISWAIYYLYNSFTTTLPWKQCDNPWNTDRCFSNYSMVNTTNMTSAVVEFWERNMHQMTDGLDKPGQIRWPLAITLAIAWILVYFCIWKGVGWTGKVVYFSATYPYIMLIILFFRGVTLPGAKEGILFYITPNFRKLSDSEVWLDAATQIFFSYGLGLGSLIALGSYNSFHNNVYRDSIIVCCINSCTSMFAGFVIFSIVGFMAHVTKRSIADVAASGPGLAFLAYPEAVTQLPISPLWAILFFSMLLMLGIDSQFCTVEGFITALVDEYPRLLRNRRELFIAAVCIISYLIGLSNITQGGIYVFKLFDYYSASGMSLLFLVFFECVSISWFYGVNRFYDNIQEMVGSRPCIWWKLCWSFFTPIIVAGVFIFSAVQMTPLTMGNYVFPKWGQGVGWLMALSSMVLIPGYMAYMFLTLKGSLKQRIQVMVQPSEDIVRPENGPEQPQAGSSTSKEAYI

What is called Ki is the equilibrium dissociation constant of an inhibitor or competing ligand from its target. A high value points to lower affinity. The compound `O=C(O)C1=CCCN(CCON=C(c2ccccc2)c2ccccc2)C1` [NO-711, 1-[2-[[(diphenylmethylene)imino]oxy]ethyl]-1,2,5,6-tetrahydro-3-pyridinecarboxylic acid] yielded a Ki of 78 ± 12 nM.
